Consider 24 molecules from patent US8404692B2, “Pyrimidin-4-yl-3, 4-dihydro-2H-pyrrolo [1,2A] pyrazin-1-one compounds” (Cyclacel Limited, priority 2005, dated 2013).

The assay concerns the target T1, aurora-A (human) (Homo sapiens, UniProt O14965).
T1 construct: purchased Upstate, Dundee, UK
T1 sequence (O14965 1-403): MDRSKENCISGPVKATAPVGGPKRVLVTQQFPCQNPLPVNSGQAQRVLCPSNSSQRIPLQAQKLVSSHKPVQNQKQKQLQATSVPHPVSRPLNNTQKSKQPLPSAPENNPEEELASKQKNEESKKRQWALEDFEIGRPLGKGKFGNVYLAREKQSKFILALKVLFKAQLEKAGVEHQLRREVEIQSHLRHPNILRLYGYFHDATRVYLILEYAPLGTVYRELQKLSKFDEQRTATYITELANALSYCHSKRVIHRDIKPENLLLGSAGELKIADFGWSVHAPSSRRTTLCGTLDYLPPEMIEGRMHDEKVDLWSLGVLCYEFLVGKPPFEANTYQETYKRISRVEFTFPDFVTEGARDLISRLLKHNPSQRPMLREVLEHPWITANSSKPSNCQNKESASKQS
Kind of assay: Aurora-A (human) kinase assay. Type of assay: biochemical. To be noted: read-out: Activity (Aurora A activity, IC50 grading). The procedure, abridged: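 Radiometric assay measuring [γ-32P] transfer from 100 μM ATP to 500 μM Kemptide by 2-5 ng active human aurora-A, pH 7.5 buffer, 30 min at 30° C. Incorporated label captured on P81 filters and counted by scintillation; IC50 from curve fitting.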
On to `Cc1nccc(-c2cccc(Nc3nccc(-c4c(C)c5n(c4C)CCN(C)C5=O)n3)c2)n1` [Example I-93, 2,6,8-Trimethyl-7-{2-[3-(2-methyl-pyrimidin-4-yl)-phenylamino]-pyrimidin-4-yl}-3,4-dihydro-2H-pyrrolo[1,2-a]pyrazin-1-one], for which the IC50 was less than 100 nM.
For the molecule `Cc1c(-c2ccnc(Nc3ccc4c(c3)CS(=O)(=O)C4)n2)c(C)n2c1C(=O)N(C)CC2` [Example I-94, 7-[2-(2,2-Dioxo-2,3-dihydro-1H-2-benzo[c]thiophen-5-ylamino)-pyrimidin-4-yl]-2,6,8-trimethyl-3,4-dihydro-2H-pyrrolo[1,2-a]pyrazin-1-one], the IC50 was less than 100 nM.
To `CCN1CCn2c(C)c(-c3ccnc(Nc4cccc(-c5ccnc(C)n5)c4)n3)c(C)c2C1=O` [Example I-95, 2-Ethyl-6,8-dimethyl-7-{2-[3-(2-methyl-pyrimidin-4-yl)-phenylamino]-pyrimidin-4-yl}-3,4-dihydro-2H-pyrrolo[1,2-a]pyrazin-1-one] belongs less than 1000 nM; to `Cc1c(-c2ccnc(Nc3cccc(S(=O)(=O)N4CCCCC4)c3)n2)c(C)n2c1C(=O)NCC2` [Example I-95c, 6,8-Dimethyl-7-{2-[3-(piperidine-1-sulfonyl)-phenylamino]-pyrimidin-4-yl}-3,4-dihydro-2H-pyrrolo[1,2-a]pyrazin-1-one], less than 10000 nM; to `COCCNC(=O)Cc1ccc(Nc2nccc(-c3c(C)c4n(c3C)CCNC4=O)n2)cc1` [Example I-96, 2-{4-[4-(6,8-Dimethyl-1-oxo-1,2,3,4-tetrahydro-pyrrolo[1,2-a]pyrazin-7-yl)-pyrimidin-2-ylamino]-phenyl}-N-(2-methoxy-ethyl)-acetamide], less than 100 nM.
Turning to `Cc1c(-c2ccnc(Nc3ccc(CC(=O)N(C)CCN(C)C)cc3)n2)c(C)n2c1C(=O)NCC2` [Example I-97, N-(2-Dimethylamino-ethyl)-2-{4-[4-(6,8-dimethyl-1-oxo-1,2,3,4-tetrahydro-pyrrolo[1,2-a]pyrazin-7-yl)-pyrimidin-2-ylamino]-phenyl}-N-methyl-acetamide], the IC50 was less than 1000 nM.
As for `Cc1c(-c2ccnc(Nc3ccc(CC(=O)N(C)CCCN(C)C)cc3)n2)c(C)n2c1C(=O)NCC2` [Example I-98, N-(3-Dimethylamino-propyl)-2-{4-[4-(6,8-dimethyl-1-oxo-1,2,3,4-tetrahydro-pyrrolo[1,2-a]pyrazin-7-yl)-pyrimidin-2-ylamino]-phenyl}-N-methyl-acetamide], the IC50 is less than 1000 nM.
In the case of `Cc1c(-c2ccnc(Nc3ccc(CC(=O)N4CCOCC4)cc3)n2)c(C)n2c1C(=O)NCC2` [Example I-99, 6,8-Dimethyl-7-{2-[4-(2-morpholin-4-yl-2-oxo-ethyl)-phenylamino]-pyrimidin-4-yl}-3,4-dihydro-2H-pyrrolo[1,2-a]pyrazin-1-one], the IC50 was less than 1000 nM.
In the case of `CC(=O)N1CCN(C(=O)Cc2ccc(Nc3nccc(-c4c(C)c5n(c4C)CCNC5=O)n3)cc2)CC1` [Example I-100, 7-(2-{4-[2-(4-Acetyl-piperazin-1-yl)-2-oxo-ethyl]-phenylamino}-pyrimidin-4-yl)-6,8-dimethyl-3,4-dihydro-2H-pyrrolo[1,2-a]pyrazin-1-one], the IC50 is less than 1000 nM.
For the molecule `Cc1c(-c2ccnc(Nc3ccc(CC(=O)N4CCN(C)CC4)cc3)n2)c(C)n2c1C(=O)NCC2` [Example I-101, 6,8-Dimethyl-7-(2-{4-[2-(4-methyl-piperazin-1-yl)-2-oxo-ethyl]-phenylamino}-pyrimidin-4-yl)-3,4-dihydro-2H-pyrrolo[1,2-a]pyrazin-1-one], the IC50 was less than 100 nM.
Consider `Cc1c(-c2ccnc(Nc3ccc(CC(N)=O)cc3)n2)c(C)n2c1C(=O)NCC2` [Example I-102, 2-{4-[4-(6,8-Dimethyl-1-oxo-1,2,3,4-tetrahydro-pyrrolo[1,2-a]pyrazin-7-yl)-pyrimidin-2-ylamino]-phenyl}-acetamide], for which the IC50 was less than 100 nM.
As for `CNC(=O)Cc1ccc(Nc2nccc(-c3c(C)c4n(c3C)CCNC4=O)n2)cc1` [Example I-103, 2-{4-[4-(6,8-Dimethyl-1-oxo-1,2,3,4-tetrahydro-pyrrolo[1,2-a]pyrazin-7-yl)-pyrimidin-2-ylamino]-phenyl}-N-methyl-acetamide], the figure is less than 100 nM; as for `Cc1c(-c2ccnc(Nc3ccc(CC(=O)N(C)C)cc3)n2)c(C)n2c1C(=O)NCC2` [Example I-104, 2-{4-[4-(6,8-Dimethyl-1-oxo-1,2,3,4-tetrahydro-pyrrolo[1,2-a]pyrazin-7-yl)-pyrimidin-2-ylamino]-phenyl}-N,N-dimethyl-acetamide], less than 1000 nM; as for `COCCNC(=O)CCc1cccc(Nc2nccc(-c3c(C)c4n(c3C)CCNC4=O)n2)c1` [Example I-105, 3-{3-[4-(6,8-Dimethyl-1-oxo-1,2,3,4-tetrahydro-pyrrolo[1,2-a]pyrazin-7-yl)-pyrimidin-2-ylamino]-phenyl}-N-(2-methoxy-ethyl)-propionamide], less than 100 nM.
`Cc1c(-c2ccnc(Nc3cccc(CCC(=O)N(C)CCN(C)C)c3)n2)c(C)n2c1C(=O)NCC2` [Example I-106, N-(2-Dimethylamino-ethyl)-3-{3-[4-(6,8-dimethyl-1-oxo-1,2,3,4-tetrahydro-pyrrolo[1,2-a]pyrazin-7-yl)-pyrimidin-2-ylamino]-phenyl}-N-methyl-propionamide]: the IC50 is less than 1000 nM.
In the case of `Cc1c(-c2ccnc(Nc3cccc(CCC(=O)N(C)CCCN(C)C)c3)n2)c(C)n2c1C(=O)NCC2` [Example I-107, N-(3-Dimethylamino-propyl)-3-{3-[4-(6,8-dimethyl-1-oxo-1,2,3,4-tetrahydro-pyrrolo[1,2-a]pyrazin-7-yl)-pyrimidin-2-ylamino]-phenyl}-N-methyl-propionamide], the IC50 was less than 1000 nM.
On to `Cc1c(-c2ccnc(Nc3cccc(CCC(=O)N4CCOCC4)c3)n2)c(C)n2c1C(=O)NCC2` [Example I-108, 6,8-Dimethyl-7-{2-[3-(3-morpholin-4-yl-3-oxo-propyl)-phenylamino]-pyrimidin-4-yl}-3,4-dihydro-2H-pyrrolo[1,2-a]pyrazin-1-one], for which the IC50 was less than 100 nM.
In the case of `CC(=O)N1CCN(C(=O)CCc2cccc(Nc3nccc(-c4c(C)c5n(c4C)CCNC5=O)n3)c2)CC1` [Example I-109, 7-(2-{3-[3-(4-Acetyl-piperazin-1-yl)-3-oxo-propyl]-phenylamino}-pyrimidin-4-yl)-6,8-dimethyl-3,4-dihydro-2H-pyrrolo[1,2-a]pyrazin-1-one], the IC50 was less than 1000 nM.
Consider `Cc1c(-c2ccnc(Nc3cccc(CCC(=O)N4CCN(C)CC4)c3)n2)c(C)n2c1C(=O)NCC2` [Example I-110, 6,8-Dimethyl-7-(2-{3-[3-(4-methyl-piperazin-1-yl)-3-oxo-propyl]-phenylamino}-pyrimidin-4-yl)-3,4-dihydro-2H-pyrrolo[1,2-a]pyrazin-1-one], for which the IC50 was less than 1000 nM.
As for `Cc1c(-c2ccnc(Nc3cccc(CCC(N)=O)c3)n2)c(C)n2c1C(=O)NCC2` [Example I-111, 3-{3-[4-(6,8-Dimethyl-1-oxo-1,2,3,4-tetrahydro-pyrrolo[1,2-a]pyrazin-7-yl)-pyrimidin-2-ylamino]-phenyl}-propionamide], the IC50 was less than 100 nM.
Take `CNC(=O)CCc1cccc(Nc2nccc(-c3c(C)c4n(c3C)CCNC4=O)n2)c1` [Example I-112, 3-{3-[4-(6,8-Dimethyl-1-oxo-1,2,3,4-tetrahydro-pyrrolo[1,2-a]pyrazin-7-yl)-pyrimidin-2-ylamino]-phenyl}-N-methyl-propionamide]: the IC50 is less than 100 nM.
Consider `Cc1c(-c2ccnc(Nc3cccc(CCC(=O)N(C)C)c3)n2)c(C)n2c1C(=O)NCC2` [Example I-113, 3-{3-[4-(6,8-Dimethyl-1-oxo-1,2,3,4-tetrahydro-pyrrolo[1,2-a]pyrazin-7-yl)-pyrimidin-2-ylamino]-phenyl}-N,N-dimethyl-propionamide], for which the IC50 was less than 100 nM.
For `COc1cc(C(=O)NC2CCN(C)CC2)ccc1Nc1nccc(-c2c(C)c3n(c2C)CCNC3=O)n1` [Example I-114, 4-[4-(6,8-Dimethyl-1-oxo-1,2,3,4-tetrahydro-pyrrolo[1,2-a]pyrazin-7-yl)-pyrimidin-2-ylamino]-3-methoxy-N-(1-methyl-piperidin-4-yl)-benzamide], the IC50 was less than 10000 nM.
As for `Cc1c(-c2ccnc(Nc3ccc(C(=O)NC4CCN(C)CC4)cc3)n2)c(C)n2c1C(=O)NCC2` [Example I-115, 4-[4-(6,8-Dimethyl-1-oxo-1,2,3,4-tetrahydro-pyrrolo[1,2-a]pyrazin-7-yl)-pyrimidin-2-ylamino]-N-(1-methyl-piperidin-4-yl)-benzamide], the concentration for half-maximal inhibition (IC50) is less than 100 nM.
